In paper PMC6508865, “Dynamics of thymol dietary supplementation in quail (Coturnix japonica): Linking bioavailability, effects on egg yolk total fatty acids and performance traits” (PLoS ONE, 2019):
Read-outs that look alike come from different tables or passages of the source.

Legend:
[1] = system: female Japanese quail (Coturnix japonica); assay: Female performance traits (body weight, feed intake, egg laying, egg physical characteristics); format: in vivo
Excerpt: (§1) A total of 50 eighty-five days-old female quail of homogeneous body weights (251 ± 1 g; Mean ± SE) and in their egg-laying peak were selected from an initial group of 96 female individuals. All birds continued receiving a basal diet between 85 and 100 days of age and all variables (see below for details) were registered along this period (Pre-supplementation period, Fig 1). From 100 to 128 days of age (S period, Fig 1), females were randomly assigned to either a chronic dietary supplementation with one of 3 THY doses (THY2, THY4 and THY6; 10 females each) or to one of 2 control groups (basal diet, BASAL, and basal diet with vehicle solution, VEHICLE; 10 females each). Once finished the S period, half of the quail were slaughtered for histological analysis (n = 25; Slaughter 1, Fig 1) and the other half were subjected to a pS period of 21 days, during which all females received the BASAL diet (pS, Fig 1). After this period, the remaining 25 animals were also slaughtered for histological analysis (Slaughter 2, Fig 1). In this way, we assessed whether THY induced changes in variables indicative of tissue damage and if so, whether the potential damages could reverse after 3 weeks of supplement withdrawal.
(§2) To assess changes in egg yolk total FA composition, egg physical characteristics, laying rate, body weight, feed intake and general welfare, during the S and pS periods, five sampling points were defined (Sample points, Fig 1): one initial sample point (at 0 days of S); three sample points during the S period (at 7, 14 and 28 days of S); and one sample point at the end of the pS period (21 days of pS). It should be noted that for determinations of THY concentration, eggs and quail droppings were collected offset from the other variables measured by 2 days, thus were collected on days 2, 9, 16, and 26 days of S, and 17 days of pS, respectively.
Female performance was evaluated through the measurement of body weight, feed intake, egg laying rate, egg physical characteristics and a general welfare quality assessment. Body weight was measured once a week throughout the experimental period. Daily feed intake (DFI) was estimated as the difference between the amount of feed supplied to each animal (60 g) and the rest that remained in the feeders the next day (g of feed/day/quail). Egg laying was registered daily and the weekly laying rate was calculated as: (number of eggs / 7 days) x 100. Egg weight, quality characteristics (such as intact, membranous, soft shell and broken shell), morphometric characteristics (egg shape index = (egg width / egg length) x 100) and percentage of constituents (egg yolk, albumen and shell) were registered at each sampling point.

[2] = Thymol quantification in egg yolk (HS-SPME/GC-MS) during chronic dietary supplementation; format: in vivo, Coturnix japonica; settings: for concentration at 2 days of supplementation / concentration at 9 days of supplementation / concentration at 16 days of supplementation / concentration at 26 days of supplementation / concentration at 17 days after supplement withdrawal: female, Japanese quail (Coturnix japonica), egg yolk, oral, read-out: THY concentration in egg yolk
Excerpt: as §1, §2
Thymol was commercially obtained from Sigma-Aldrich (SAFC®, ⩾99%; FCC, Saint Louis, MO, USA). Supplemented quail were provided 2, 4 or 6.25 g of THY per kg of feed. For this end, THY was prepared in a 2.4, 4.8 and 7.5% w/v ethanolic solution and uniformly sprayed on fresh feed. The feed was prepared and administrated daily, to minimize THY volatilization from feed before its consumption by females. The doses were selected considering two factors. The first, the concentration range for which the transfer of THY to the chicken and/or quail egg has been established. Second, the concentrations of THY supplementation that have shown biological effects. […] In this context, THY4 is and intermediate dose between the last two. Nutrient and FA compositions of the diets supplied were identical between each other and are reported in S1, S2 and S3 Tables, and are in accordance with the National Research Council recommendation.
Egg yolks and droppings of each female were obtained at each sample point (Sample points, Fig 1) and THY concentration was immediately measured by head space-solid phase microextraction followed by gas chromatography-mass spectrometry (HS-SPME/GC-MS) according to Fernandez et al.. SPME was performed with a manual holder with 100 um polydimethylsiloxane (PDMS) fiber. An aliquot of egg yolk (3 g), droppings (5 g) or feed (5 g) was put in a sealed 20 mL glass vial, spiked at the corresponding level with the standard m-cresol (Sigma-Aldrich; ≥ 99% (GC); Saint Louis, MO, USA) stock solution, and vortexed for 5 min. The vials were placed in a water bath and the PDMS fiber was exposed to the headspace for 30 min at 60°C and 5 min at 40°C for egg yolk and droppings or feed, respectively. The fiber was then inserted directly into the GC injector for desorption at 250°C for 10 min in splitless mode. Chromatography analysis was carried out in a Perkin Elmer Clarus 600 equipped with a PSSI injector and a quadrupole MS detector (Perkin Elmer, USA). Turbo Mass 5.4.2 software was used to control and acquire data from GC–MS. […]

[3] = overall mean over BASAL, VEHICLE and 2, 4, 6.25 g thymol/kg feed diets and five sampling times, no effect of diet

In the case of Cc1ccc(C(C)C)c(O)c1 [THY, 2 isopropyl-5-methylphenol], the “effect on physical egg traits” value ([1]; 2, 4, 6.25 g of THY/kg feed) is reported as “did not affect”, the “effect of the diet supplied on performance variables (body weight, feed intake, egg laying, morphometric characteristics and constituents of eggs)” value ([1]; 2, 4, 6.25 g of THY/kg feed vs controls, 28 days S and 21 days pS) is reported as “no effects” and the Egg shape index ([1]; (egg width / egg length) x 100, overall mean over BASAL, VEHICLE and 2, 4, 6.25 g thymol/kg feed diets and five sampling times, no effect of diet) is reported as 79.5%. It also gave a daily feed intake ([1]; no differences between treatments, all diets) of 30.3 ± 1 g/day/animal, an Egg albumen [1, 3] of 48.6% and an Egg shell [1, 3] of 14.4%. The Egg weight [1, 3] was 11.3 g, the Egg yolk [1, 3] was 37.0% and the “Weekly Body Weight per individual” value [1, 3] was 254 g. For the same molecule, the “Weekly Feed Intake per individual” value [1, 3] was 212 g, the “Cumulative number of eggs” value ([1]; overall mean over BASAL, VEHICLE and 2, 4, 6.25 g thymol/kg feed diets, no effect of diet) was 42 and the “Percentage of THY transferred to egg yolk in relation to the amount ingested” value (“Percentage of THY transferred” for short) ([2]; THY2, 2 g of thymol/kg of feed, 2 days of S) was 0.02%. For the same molecule, the “Percentage of THY transferred” value ([2]; THY2, 2 g of thymol/kg of feed, 9 days of S) was 0.23%, the “Percentage of THY transferred” value ([2]; THY2, 2 g of thymol/kg of feed, 16 days of S) was 0.22% and the “Percentage of THY transferred” value ([2]; THY2, 2 g of thymol/kg of feed, 26 days of S) was 0.25%. The “Percentage of THY transferred” value ([2]; THY2, 2 g of thymol/kg of feed, pS, 17 days of supplement withdrawal) was 0.03%, the “Percentage of THY transferred” value ([2]; THY4, 4 g of thymol/kg of feed, 2 days of S) was 0.01% and the “Percentage of THY transferred” value ([2]; THY4, 4 g of thymol/kg of feed, 9 days of S) was 0.17%. The “Percentage of THY transferred” value ([2]; THY4, 4 g of thymol/kg of feed, 16 days of S) was 0.17%, the “Percentage of THY transferred” value ([2]; THY4, 4 g of thymol/kg of feed, 26 days of S) was 0.16% and the “Percentage of THY transferred” value ([2]; THY4, 4 g of thymol/kg of feed, pS, 17 days of supplement withdrawal) was 0.02%. The “Percentage of THY transferred” value ([2]; THY6, 6.25 g of thymol/kg of feed, 2 days of S) was 0.02%, the “Percentage of THY transferred” value ([2]; THY6, 6.25 g of thymol/kg of feed, 9 days of S) was 0.14% and the “Percentage of THY transferred” value ([2]; THY6, 6.25 g of thymol/kg of feed, 16 days of S) was 0.13%. The “Percentage of THY transferred” value ([2]; THY6, 6.25 g of thymol/kg of feed, 26 days of S) was 0.13%, the “Percentage of THY transferred” value ([2]; THY6, 6.25 g of thymol/kg of feed, pS, 17 days of supplement withdrawal) was 0.03% and the “THY transferred to the egg yolk, of the amount THY ingested” value ([2]; during the plateau, across THY2, THY4, THY6) was 0.13–0.25%. For the same molecule, the “highest concentration of THY detected in egg yolk, molar equivalent” value ([2]; equivalent of 406 ng/g of egg yolk) was ~ 3.05 uM, the concentration at 2 days of supplementation ([2]; 2 g/kg of feed, THY2, 2 g of thymol/kg of feed, 2 days of S) was 12.5 ng/g and the concentration at 9 days of supplementation ([2]; 2 g/kg of feed, THY2, 2 g of thymol/kg of feed, 9 days of S) was 156 ng/g. For the same molecule, the concentration at 16 days of supplementation ([2]; 2 g/kg of feed, THY2, 2 g of thymol/kg of feed, 16 days of S) was 150 ng/g, the concentration at 26 days of supplementation ([2]; 2 g/kg of feed, THY2, 2 g of thymol/kg of feed, 26 days of S) was 169 ng/g and the concentration at 17 days after supplement withdrawal ([2]; 2 g/kg of feed, THY2, 2 g of thymol/kg of feed, pS, 17 days of supplement withdrawal) was 17.9 ng/g. For the same molecule, the concentration at 2 days of supplementation ([2]; 4 g/kg of feed, THY4, 4 g of thymol/kg of feed, 2 days of S) was 26.1 ng/g, the concentration at 9 days of supplementation ([2]; 4 g/kg of feed, THY4, 4 g of thymol/kg of feed, 9 days of S) was 297 ng/g and the concentration at 16 days of supplementation ([2]; 4 g/kg of feed, THY4, 4 g of thymol/kg of feed, 16 days of S) was 295 ng/g. For the same molecule, the concentration at 26 days of supplementation ([2]; 4 g/kg of feed, THY4, 4 g of thymol/kg of feed, 26 days of S) was 282 ng/g, the concentration at 17 days after supplement withdrawal ([2]; 4 g/kg of feed, THY4, 4 g of thymol/kg of feed, pS, 17 days of supplement withdrawal) was 36.3 ng/g and the concentration at 2 days of supplementation ([2]; 6.25 g/kg of feed, THY6, 6.25 g of thymol/kg of feed, 2 days of S) was 42.9 ng/g. It also gave a concentration at 9 days of supplementation ([2]; 6.25 g/kg of feed, THY6, 6.25 g of thymol/kg of feed, 9 days of S) of 407 ng/g, a concentration at 16 days of supplementation ([2]; 6.25 g/kg of feed, THY6, 6.25 g of thymol/kg of feed, 16 days of S) of 372 ng/g and a concentration at 26 days of supplementation ([2]; 6.25 g/kg of feed, THY6, 6.25 g of thymol/kg of feed, 26 days of S) of 377 ng/g. For the same molecule, the concentration at 17 days after supplement withdrawal ([2]; 6.25 g/kg of feed, THY6, 6.25 g of thymol/kg of feed, pS, 17 days of supplement withdrawal) was 69.5 ng/g and the “highest concentration of THY detected in egg yolk” value ([2]; highest of the study) was ~406 ng/g of egg yolk.
